Assay results reported in EP3682883A1, “QUINOLINE DERIVATIVE FOR TREATMENT OF NEUROENDOCRINE TUMORS” (Chia Tai Tianqing Pharmaceutical Group Co., Ltd., priority 2017, dated 2019).

How the values were obtained:
Assay type in all cases: in vivo, human
[1] = tested on: ampullary neuroendocrine tumor; test: Clinical case Example 10: treatment of a patient, CT scan of metastatic lesions; details: prior therapy in patient history; 10mg qd orally; CT and MRI on May 25, 2018
Source text: A patient, underwent a laparotomy on August 18, 2016, the gallbladder, distal part of the stomach, duodenum, and part of the pancreas were removed. […] The patient was diagnosed with ampullary neuroendocrine tumor (high proliferative activity, mitotic count, […]) on November 4, 2016, which was located in the ampulla, the common bile duct, duodenal papilla and major pancreatic duct were invaded, intravascular tumor thrombus was visible and pancreatic tissue was also invaded, immunohistochemistry: AFP (-).
10mg of everolimus (qd) was administered orally from February 7 to May 25, 2018, and the efficacy was evaluated as SD on March 29, 2018.
A daily dose of 12 mg of dihydrochloride of Compound I capsule was given once a day from July 4, 2018 (two-week administration period and one-week withdrawal period, i.e. three weeks as one treatment cycle).

[2] = tested on: retroperitoneal neuroendocrine tumor; test: Clinical case Example 5: treatment of a patient, CT scan of target lesions; details: prior therapy in patient history
[3] = tested on: neuroendocrine tumor which tend to be atypical carcinoid; test: Clinical case Example 4: treatment of a patient, CT scan of target lesions; details: prior therapy in patient history; 4 mg once a month; after two cycles
Method: A patient was diagnosed with neuroendocrine tumor which tend to be atypical carcinoid after a chest tumor puncture by pathology exam, then the patient was treated with chemotherapy of paclitaxel, etoposide and cisplatin for three cycles, a CT scan was performed after the treatment, efficacy of the therapy was evaluated as SD, followed by Right anterior mediastinal mass resection and partial right upper lobe resection. […] Local chest radiotherapy was performed in the first to second month after operation, and evaluated as SD after the treatment, during which III° radiation esophagitis occurred. […] Temozolomide and capecitabine was then given for 2 cycles from the 23rd month to 25th month after operation, and efficacy was evaluated as SD (large), during this period, pain in both lower extremities occurred, and even got worse. Then 4 mg of zoledronic acid was given once a month, the efficacy was evaluated as PD by CT scan after two cycles of the treatment, followingly, Shanlong (octreotide acetate microspheres for injection) was given for 1 cycle, the efficacy was evaluated as PD by CT scan which was performed after 27 months postoperatively, and the sum of the target lesion diameters was 179 mm. […]

Compound: CO[C@H]1C[C@@H]2CC[C@@H](C)[C@@](O)(O2)C(=O)C(=O)N2CCCC[C@H]2C(=O)O[C@H]([C@H](C)C[C@@H]2CC[C@@H](OCCO)[C@H](OC)C2)CC(=O)[C@H](C)/C=C(\C)[C@@H](O)[C@@H](OC)C(=O)[C@H](C)C[C@H](C)/C=C/C=C/C=C/1C [everolimus]
- CT and MRI result (prior therapy) [1]: the disease progressed

Compound: CCN(CC)CCNC(=O)c1c(C)[nH]c(/C=C2\C(=O)Nc3ccc(F)cc32)c1C [sunitinib malate]
- efficacy evaluated (prior therapy) ([2]; after Saisheng and thymosin): PD (the sum of the diameters of target lesions of tumor increased by more than 20% from the baseline level)

Compound: O=P(O)(O)C(O)(Cn1ccnc1)P(=O)(O)O [zoledronic acid]
- efficacy evaluated by CT scan (prior therapy) [3]: PD (the sum of the diameters of target lesions of tumor increased by more than 20% from the baseline level)

Compound: thymosin
- reexamination (prior therapy) ([2]; Saisheng and thymosin given together): no response
